This note sets out measurements from patent publication US8586588B2, “Aryl pyridazinone derivatives and their use as H3 receptor ligands” (Cephalon, Inc., priority 2006, dated 2013).

Broadly, the melting point is the temperature, or range, at which the solid turns liquid.

Counter-ions that a name gives are not always drawn.

Consider `C[C@@H]1CCCN1CCCOc1ccc(-c2nn(C)c(=O)c3c2CCCC3)cc1` (as salt: HCl) [Example 60, 2-Methyl-4-{4-[3-((R)-2-methyl-pyrrolidin-1-yl)-propoxy]-phenyl}-5,6,7,8-tetrahydro-2H-phthalazin-1-one], for which the melting point lay in the range of 156 to 158 °C. For the molecule `Cn1nc(-c2ccc(OCCCN3CCCCC3)cc2)c2c(c1=O)CCCC2` (as salt: HCl) [Example 61], the melting point was 196 to 198 °C. In the case of `Cn1nc(-c2ccc(OCC3CCNCC3)cc2)c2ccccc2c1=O` (as salt: HCl) [Example 63, 2-Methyl-4-[4-(piperidin-4-ylmethoxy)-phenyl]-2H-phthalazin-1-one], the melting point lay within 207 to 209 °C.

Molecule `Cn1nc(-c2ccc(OCC3CCN(C4CCC4)CC3)cc2)c2ccccc2c1=O` (as salt: HCl) [Example 64, 4-[4-(1-Cyclobutyl-piperidin-4-ylmethoxy)-phenyl]-2-methyl-2H-phthalazin-1-one] showed a melting point of 256 to 257 °C.

Turning to `Cn1nc(-c2ccc(OCC3CCNCC3)cc2)ccc1=O` (as salt: HCl) [Example 66, 2-Methyl-6-[4-(piperidin-4-ylmethoxy)-phenyl]-2H-pyridazin-3-one], the melting point was 249 to 251 °C. In the case of `Cn1nc(-c2ccc(OCC3CCN(C4CCC4)CC3)cc2)ccc1=O` (as salt: HCl) [Example 67, 6-[4-(1-Cyclobutyl-piperidin-4-ylmethoxy)-phenyl]-2-methyl-2H-pyridazin-3-one], the melting point was in the range of 250 to 252 °C.

In turn, `CC(C)N1CCC(COc2ccc(-c3ccc(=O)n(C)n3)cc2)CC1` (as salt: HCl) [Example 68, 6-[4-(1-Isopropyl-piperidin-4-ylmethoxy)-phenyl]-2-methyl-2H-pyridazin-3-one] yielded a melting point of 187 to 189 °C. As for `Cn1nc(-c2ccc(OCC3CCN(CC4CC4)CC3)cc2)ccc1=O` (as salt: HCl) [Example 69, 6-[4-(1-Cyclopropylmethyl-piperidin-4-ylmethoxy)-phenyl]-2-methyl-2H-pyridazin-3-one], the melting point fell in the range of 230 to 231 °C. Consider `Cn1nc(-c2ccc(OCC3CCN(C4CCCC4)CC3)cc2)ccc1=O` (as salt: HCl) [Example 70, 6-[4-(1-Cyclopentyl-piperidin-4-ylmethoxy)-phenyl]-2-methyl-2H-pyridazin-3-one], for which the melting point fell in the range of 250 to 251 °C. Regarding `CN1CCC(COc2ccc(-c3ccc(=O)n(C)n3)cc2)CC1` (as salt: HCl) [Example 71, 2-Methyl-6-[4-(1-methyl-piperidin-4-ylmethoxy)-phenyl]-2H-pyridazin-3-one], the melting point fell in the range of 257 to 258 °C. The figure for `CC(C)N1CCC(Oc2ccc(-c3ccc(=O)n(C)n3)cc2)CC1` (as salt: HCl) [Example 72] is 108 to 110 °C; for `C[C@@H]1CCCN1CCCOc1ccc2c(c1)CCc1cc(=O)n(-c3ccccc3)nc1-2` (as salt: HCl) [Example 76, 8-[3-((R)-2-Methyl-pyrrolidin-1-yl)-propoxy]-2-phenyl-5,6-dihydro-2H-benzo[h]cinnolin-3-one] it is 140 to 142 °C; for `Cn1ncc2ccc(OCCCN3CCCCC3)cc2c1=O` (as salt: HCl) [Example 80, 2-Methyl-7-(3-piperidin-1-yl-propoxy)-2H-phthalazin-1-one] it is 251 to 252 °C. Molecule `C[C@@H]1CCCN1CCCOc1ccc(-c2ccc(=O)n(-c3ccccc3)n2)cc1F` (as salt: HCl) [Example 81, 6-{3-Fluoro-4-[3-((R)-2-methyl-pyrrolidin-1-yl)-propoxy]-phenyl}-2-phenyl-2H-pyridazin-3-one] came in with a melting point of 190 to 191 °C. `C[C@@H](COc1ccc(-c2ccc(=O)n(C)n2)cc1)CN1CCC[C@H]1C` (as salt: HCl) [Example 82, 2-Methyl-6-{4-[(R)-2-methyl-3-((R)-2-methyl-pyrrolidin-1-yl)-propoxy]-phenyl}-2H-pyridazin-3-one]: the melting point is 76 to 78 °C.

`Cc1nn(C)c(=O)cc1-c1ccc(OCCCN2CCC[C@H]2C)cc1` (as salt: HCl) [Example 86, 2,6-Dimethyl-5-{4-[3-((R)-2-methyl-pyrrolidin-1-yl)-propoxy]-phenyl}-2H-pyridazin-3-one] registered a melting point of 176 to 178 °C. The figure for `O=c1cc(-c2ccc(OCCCN3CCCCC3)cc2)cnn1-c1ccccn1` (as salt: HCl) [Example 95, 5-[4-(3-Piperidin-1-yl-propoxy)-phenyl]-2-pyridin-2-yl-2H-pyridazin-3-one] is 266 to 268 °C; for `O=c1cc(-c2ccc(OCCCN3CCCCCC3)cc2)cnn1-c1ccccn1` (as salt: HCl) [Example 96, 5-[4-(3-Azepan-1-yl-propoxy)-phenyl]-2-pyridin-2-yl-2H-pyridazin-3-one] it is 230 to 232 °C; for `Cc1n[nH]c(=O)cc1-c1ccc(OC2CCN(C3CCC3)CC2)cc1` (as salt: HCl) [Example 103, 5-[4-(1-Cyclobutyl-piperidin-4-yloxy)-phenyl]-6-methyl-2H-pyridazin-3-one] it is 296 to 297 °C. In the case of `Cc1nn(-c2ccsc2)c(=O)cc1-c1ccc(OC2CCN(C3CCC3)CC2)cc1` (as salt: HCl) [Example 107, 5-[4-(1-Cyclobutyl-piperidin-4-yloxy)-phenyl]-6-methyl-2-thiophen-3-yl-2H-pyridazin-3-one], the melting point lay within 277 to 279 °C. To `Cc1nn(-c2ccsc2)c(=O)cc1-c1ccc(OCCCN2CCC[C@H]2C)cc1` (as salt: HCl) [Example 108, 6-Methyl-5-{4-[3-((R)-2-methyl-pyrrolidin-1-yl)-propoxy]-phenyl}-2-thiophen-3-yl-2H-pyridazin-3-one] belongs 212 to 213 °C.

With `CC1CC(c2ccc(OC3CCN(C4CCC4)CC3)cc2)=NNC1=O` (stereo not drawn) (as salt: HCl) [Example 116, 6-[4-(1-Cyclobutyl-piperidin-4-yloxy)-phenyl]-4-methyl-4,5-dihydro-2H-pyridazin-3-one], the melting point fell in the range of 257 to 259 °C. The figure for `C[C@@H]1CCCN1CCCOc1ccc(-c2ccc(=O)[nH]n2)cc1F` (as salt: HCl) [Example 119, 6-{3-Fluoro-4-[3-((R)-2-methyl-pyrrolidin-1-yl)-propoxy]-phenyl}-2H-pyridazin-3-one] is 252 to 253 °C. Molecule `O=c1ccc(-c2ccc(OCCCN3CCCCC3)c(F)c2)n[nH]1` (as salt: HCl) [Example 120, 6-[3-Fluoro-4-(3-piperidin-1-yl-propoxy)-phenyl]-2H-pyridazin-3-one] displayed a melting point of 240 to 242 °C. In the case of `CC1CC(c2ccc(OCCCN3CCC[C@H]3C)cc2)=NNC1=O` (stereo partly drawn) (as salt: HCl) [Example 121, 4-Methyl-6-{4-[3-((R)-2-methyl-pyrrolidin-1-yl)-propoxy]-phenyl}-4,5-dihydro-2H-pyridazin-3-one], the melting point lay within 201 to 203 °C. Turning to `Cc1cc(-c2ccc(OCCCN3CCC[C@H]3C)cc2)n[nH]c1=O` (as salt: HCl) [Example 122, 4-Methyl-6-{4-[3-((R)-2-methyl-pyrrolidin-1-yl)-propoxy]-phenyl}-2H-pyridazin-3-one], the melting point lay within 207 to 208 °C. `Cc1cc(-c2ccc(OCCCN3CCCCC3)cc2)n[nH]c1=O` (as salt: HCl) [Example 123, 4-Methyl-6-[4-(3-piperidin-1-yl-propoxy)-phenyl]-2H-pyridazin-3-one] displayed a melting point of 227 to 229 °C.

`Cn1nc(-c2ccc(OCCCN3CCC[C@H]3CO)cc2)c2c(c1=O)CCCC2` (as salt: HCl) [Example 124, 4-{4-[3-((S)-2-Hydroxymethyl-pyrrolidin-1-yl)-propoxy]-phenyl}-2-methyl-5,6,7,8-tetrahydro-2H-phthalazin-1-one] showed a melting point of 120 to 122 °C. Molecule `C[C@@H]1CCCN1CCCOc1cccc(-c2nn(C)c(=O)c3c2CCC3)c1` (as salt: HCl) [Example 125, 2-Methyl-4-{3-[3-((R)-2-methyl-pyrrolidin-1-yl)-propoxy]-phenyl}-2,5,6,7-tetrahydro-cyclopenta[d]pyridazin-1-one] came in with a melting point of 172 to 174 °C. Molecule `Cn1nc(-c2cccc(OCCCN3CCCCC3)c2)c2c(c1=O)CCC2` (as salt: HCl) [Example 126, 2-Methyl-4-[3-(3-piperidin-1-yl-propoxy)-phenyl]-2,5,6,7-tetrahydro-cyclopenta[d]pyridazin-1-one] yielded a melting point of 189 to 190 °C.

With `Cn1nc(-c2cccc(OCCCN3CCC[C@H]3CO)c2)c2c(c1=O)CCC2` (as salt: HCl) [Example 127, 4-{3-[3-((S)-2-Hydroxymethyl-pyrrolidin-1-yl)-propoxy]-phenyl}-2-methyl-2,5,6,7-tetrahydro-cyclopenta[d]pyridazin-1-one], the melting point lay in the range of 193 to 194 °C. For the molecule `CC(C)n1ncc(-c2ccc(OCCCN3CCC[C@H]3C)cc2)cc1=O` (as salt: HCl) [Example 128, 2-Isopropyl-5-{4-[3-((R)-2-methyl-pyrrolidin-1-yl)-propoxy]-phenyl}-2H-pyridazin-3-one], the melting point lay in the range of 251 to 253 °C. Turning to `O=c1ccc(-c2ccc(OC3CCN(C4CCC4)CC3)nc2)nn1-c1ccccn1` (as salt: HCl) [Example 149, 6-[6-(1-Cyclobutyl-piperidin-4-yloxy)-pyridin-3-yl]-2-pyridin-2-yl-2H-pyridazin-3-one], the melting point was in the range of 261 to 262 °C.

`O=C1CCC(c2ccc(OC3CCN(C4CCC4)CC3)cc2)=NN1c1ccccn1` (as salt: HCl) [Example 158, 6-[4-(1-Cyclobutyl-piperidin-4-yloxy)phenyl]-2-pyridin-2-yl-4,5-dihydro-2H-pyridazin-3-one] showed a melting point of 263 to 265 °C.

In turn, `O=C1NN=C(c2ccc(OC3CCN(C4CCC4)CC3)cc2)C2CCC12` (stereo not drawn) (as salt: HCl) [Example 172, 5-[4-(1-Cyclobutyl-piperidin-4-yloxy)-phenyl]-3,4-diaza-bicyclo[4.2.0]oct-4-en-2-one] had a melting point of 285 to 288 °C. With `C[C@@H]1CCCN1CCCOc1ccc(C2=NN(c3ccccn3)C(=O)CC2)cc1` (as salt: HCl) [Example 183, 6-{4-[3-((R)-2-Methyl-pyrrolidin-1-yl)-propoxy]-phenyl}-2-pyridin-2-yl-4,5-dihydro-2H-pyridazin-3-one], the melting point fell in the range of 203 to 205 °C.
